From the NIST ThermoML archive (doi:10.1016/j.tca.2010.11.013)

Assay: wn = mass fraction of the nth substance listed
Conditions: 101 kPa, Liquid; for speed of sound: Sing-around technique in a fixed-path interferometer; for mass density: Vibrating tube method

O=C(CO)[C@@H](O)[C@H](O)[C@H](O)CO [D-fructose] + O
Conditions | mass density, 288.15 K [kg/m3] | mass density, 293.15 K [kg/m3] | mass density, 298.15 K [kg/m3] | mass density, 303.15 K [kg/m3] | mass density, 308.15 K [kg/m3] | speed of sound, 288.15 K [m/s] | speed of sound, 293.15 K [m/s] | speed of sound, 298.15 K [m/s] | speed of sound, 303.15 K [m/s] | speed of sound, 308.15 K [m/s]
w1 = 0.0209 | – | – | 1005.17 | 1003.7 | 1002.02 | 1476.2 | 1492 | – | 1517.3 | 1527
w1 = 0.0389 | 1014.62 | 1013.56 | 1012.26 | – | 1009 | 1483.1 | 1498.5 | 1512 | – | 1533.2
w1 = 0.0611 | 1023.64 | 1022.5 | 1021.11 | 1019.51 | 1017.71 | – | 1507.8 | 1520.8 | 1531.8 | –

OC[C@H]1O[C@@](CO)(O[C@H]2O[C@H](CO)[C@@H](O)[C@H](O)[C@H]2O)[C@@H](O)[C@@H]1O [D-sucrose] + O
Conditions | mass density, 288.15 K [kg/m3] | mass density, 293.15 K [kg/m3] | mass density, 298.15 K [kg/m3] | mass density, 303.15 K [kg/m3] | mass density, 308.15 K [kg/m3] | speed of sound, 288.15 K [m/s] | speed of sound, 293.15 K [m/s] | speed of sound, 298.15 K [m/s] | speed of sound, 303.15 K [m/s] | speed of sound, 308.15 K [m/s]
w1 = 0.0214 | 1007.5 | 1006.55 | 1005.34 | 1003.89 | 1002.24 | 1473.1 | 1489 | 1503 | 1515.1 | 1525.3
w1 = 0.0419 | 1015.59 | 1014.59 | 1013.33 | 1011.85 | 1010.16 | 1479.3 | 1495.1 | 1508.8 | 1520.5 | 1530.4
w1 = 0.0614 | 1023.45 | 1022.4 | 1021.1 | 1019.58 | 1017.85 | 1486.3 | 1501.8 | 1515.3 | 1526.8 | 1536.7
